Reference: patent US20010004643A1, “Pharmaceutical composition with sotalol combination and their use in treatment of cardiac ailments” (priority 1999, published 2001)
Entries after “also recorded” stand apart in the source; their conditions may differ. Marks after values point to notes of the source that are not given here.

Experiments:
[1] = tested on: ouabain induced arrhythmia (VT, VF, mortality); test: Ouabain induced arrhythmia model in guinea pig; format: in vivo; details: for % INCIDENCE OF MORTALITY: mortality at 60 min; for deaths due to conduction block (60 min), actual incidence (value in parenthesis) / deaths due to tachyarrhythmia (60 min), actual incidence (value in parenthesis): number of animals; for actual incidence of VF (value in parenthesis) / actual incidence of VT (value in parenthesis) / actual incidence of mortality (value in parenthesis): number of animals of the group; for % INCIDENCE OF VF / % INCIDENCE OF VT: ouabain 240 μg/kg in three doses, observed one hour; for DEATHS DUE TO CONDUCTION BLOCK (60 MIN) Percentage / DEATHS DUE TO TACHYARRHYTHMIA (60 MIN) Percentage: percentage deaths out of total mortality; for actual incidence of mortality (value in parenthesis): 60 min
Text: Method: Guinea pigs (Dunken Hartley) of either sex weighing between 400 and 500 g were used for the study. The animals were anesthetized with urethane (1.25 g/kg. i.p.). The left common carotid artery and left jugular vein were cannulated for arterial blood pressure monitoring and intravenous access respectively. Lead II electrocardiogram, arterial blood pressure, mean arterial blood pressure (MABP), heart rate were monitored throughout the experiment.
After initial surgical preparations and allowing 30 minutes for the animal to stabilise the first dose of ouabain (90 μg/kg) was administered over a period of one minute. After the interval of thirty minutes, second dose of ouabain (60 μg/kg) was administered over a period of one minute. One minute after this dose, 0.5 ml saline (in control experiments) was administered over a period of one minute. After an interval of 10 minutes a third dose of ouabain (90 μg/kg) was administered over a period of one minute. […] The test compounds were administered to animals in test group in place of saline to evaluate their antiarrhythmic potential. From the ECG recordings, the incidence of VT, VF and mortality were recorded. The doses of ratios of sotalol isomers studied were 0.1, 0.5 and 2.5 mg/kg.
Interpretation of ECG recordings: Minor disturbance in rhythm was not considered while evaluating ventricular tachyarrhythmias. A run of more than 3 ventricular ectopic beats having wide QRS complexes associated with partial haemodynamic collapse was considered as Ventricular Tachycardia (VT). Total morphological irregularity of repetitive complexes for at least six cycles associated with complete haemodynamic collapse was considered as Ventricular Fibrillation (VF). Successful arrhythmia protection was defined as no occurrence of VT and VF from the injection of saline/test drug till the end of the experiment.
Statistics: Chi square test with continuity correction at 95% confidence limit was applied to find out the statistical significance between control and test groups for incidence of VT, VF and mortality. Whenever, any of the value in a cell was less than 5, Fischer's exact probability test was used.
Results: Different ratios of sotalol in the dose range from 0.02 mg/kg to 12.5 mg/kg were studied in individual groups of animals. In all 18 groups were studied and at least 6 animals were used in each group. In control animals ouabain 240 μg/kg in three divided doses induced reproducible ventricular tachyarrhythmias in guinea pigs. It was observed that ventricular arrhythmias appeared after the administration of the third dose. Guinea pigs which responded early i.e. before or within 1 min. of administration of the second dose, were considered early responders and were not included in the study. […] In the study, control experiments were carried out randomly interspersed in test groups. Among the 42 control animals the incidence of VT was 81%, incidence of VF was 71.4% and the incidence of mortality at 60 minutes was 61.9%.

[2] = tested on: beta adrenergic blockade, isolated right auricle preparation of rabbit; test: Beta blocking potency (pA2 against isoprenaline) in isolated rabbit right auricle; details: isoprenaline chronotropic response, Schild's plot
Protocol: Estimation of the beta blockade of various ratios of d- and l- isomers of sotalol was carried out in the isolated right auricle preparation of rabbit. The spontaneously beating right atrium was dissected and mounted in a 20 ml tissue bath. The resting tension on the atria was set at 1 g. The contractions were recorded using a force displacement transducer. The spontaneous contractions of the right atria were recorded isometrically and the heart rate was obtained as a derived parameter using a ratemeter that gave the output in beats per minute. Six different ratios of d and l isomers were investigated (1:1, 2:1, 3:1, 4:1, 5:1 and 1:0). Dose-response-curves (DRC) for isoprenaline in the isolated atria, using the chronotropic response were determined by cumulative addition of isoprenaline. The pA2 values of each of the ratios were estimated using the classical Schild's plot (Schild, 1957) and the values are shown in Table 1.

[3] = guinea pig, in vivo, listed as 2.5:1 ratio (d:l)

SMILES: CC(C)NCC(O)c1ccc(NS(C)(=O)=O)cc1 (racemic) [dl-SOTALOL, N-[4-[1-hydroxy-2-[(1-methylethyl)amino]ethyl]phenyl] methane sulfonamide]
- % INCIDENCE OF MORTALITY ([1]; 0.02 mg/kg): 16.6%
- deaths due to conduction block (60 min), actual incidence (value in parenthesis) ([1]; 0.02 mg/kg): (0)
- deaths due to tachyarrhythmia (60 min), actual incidence (value in parenthesis) ([1]; 0.02 mg/kg): (1)
- actual incidence of VF (value in parenthesis) ([1]; 0.02 mg/kg): (5)
- actual incidence of VT (value in parenthesis) ([1]; 0.02 mg/kg): (5)
- % INCIDENCE OF VF ([1]; 0.02 mg/kg): 83.3%
- % INCIDENCE OF VT ([1]; 0.02 mg/kg): 83.3%
- DEATHS DUE TO CONDUCTION BLOCK (60 MIN) Percentage ([1]; 0.02 mg/kg): 00.0%
- DEATHS DUE TO TACHYARRHYTHMIA (60 MIN) Percentage ([1]; 0.02 mg/kg): 100.0%
- actual incidence of mortality (value in parenthesis) ([1]; 0.1 mg/kg): (2)
- % INCIDENCE OF MORTALITY ([1]; 0.1 mg/kg): 33.3%
- deaths due to conduction block (60 min), actual incidence (value in parenthesis) ([1]; 0.1 mg/kg): (1)
- deaths due to tachyarrhythmia (60 min), actual incidence (value in parenthesis) ([1]; 0.1 mg/kg): (1)
- actual incidence of VF (value in parenthesis) ([1]; 0.1 mg/kg): (2)
- actual incidence of VT (value in parenthesis) ([1]; 0.1 mg/kg): (2)*
- % INCIDENCE OF VF ([1]; 0.1 mg/kg): 33.3%
- % INCIDENCE OF VT ([1]; 0.1 mg/kg): 33.3%
- DEATHS DUE TO CONDUCTION BLOCK (60 MIN) Percentage ([1]; 0.1 mg/kg): 50.0%
- DEATHS DUE TO TACHYARRHYTHMIA (60 MIN) Percentage ([1]; 0.1 mg/kg): 50.0%
- actual incidence of mortality (value in parenthesis) ([1]; 0.5 mg/kg): (3)
- % INCIDENCE OF MORTALITY ([1]; 0.5 mg/kg): 50.0%
- deaths due to conduction block (60 min), actual incidence (value in parenthesis) ([1]; 0.5 mg/kg): (3)
- deaths due to tachyarrhythmia (60 min), actual incidence (value in parenthesis) ([1]; 0.5 mg/kg): (0)
- actual incidence of VF (value in parenthesis) ([1]; 0.5 mg/kg): (2)
- actual incidence of VT (value in parenthesis) ([1]; 0.5 mg/kg): (2)*
- % INCIDENCE OF VF ([1]; 0.5 mg/kg): 33.3%
- % INCIDENCE OF VT ([1]; 0.5 mg/kg): 33.3%
- DEATHS DUE TO CONDUCTION BLOCK (60 MIN) Percentage ([1]; 0.5 mg/kg): 100.0%
- DEATHS DUE TO TACHYARRHYTHMIA (60 MIN) Percentage ([1]; 0.5 mg/kg): 00.0%
- protection against mortality ([1]; 2.5 mg/kg): no protection
- protection from deaths due to tachyarrhythmias ([1]; 2.5 mg/kg): completely protected
- actual incidence of mortality (value in parenthesis) ([1]; 2.5 mg/kg): (6)
- % INCIDENCE OF MORTALITY ([1]; 2.5 mg/kg): 60.0%
- % INCIDENCE OF MORTALITY ([1]; 2.5 mg/kg, listed as d:l sotalol (ratio 1:1)): 60%
- deaths due to conduction block (60 min), actual incidence (value in parenthesis) ([1]; 2.5 mg/kg): (6)
- deaths due to tachyarrhythmia (60 min), actual incidence (value in parenthesis) ([1]; 2.5 mg/kg): (0)*
- actual incidence of VF (value in parenthesis) ([1]; 2.5 mg/kg): (0)*
- actual incidence of VT (value in parenthesis) ([1]; 2.5 mg/kg): (0)*
- % INCIDENCE OF VF ([1]; 2.5 mg/kg): 00.0%
- % INCIDENCE OF VT ([1]; 2.5 mg/kg): 00.0%
- DEATHS DUE TO CONDUCTION BLOCK (60 MIN) Percentage ([1]; 2.5 mg/kg): 100.0%
- DEATHS DUE TO TACHYARRHYTHMIA (60 MIN) Percentage ([1]; 2.5 mg/kg): 00.0%
- protection against ouabain induced VT ([1]; 0.1, 0.5 and 2.5 mg/kg dose): able to protect
- protection against VF ([1]; 0.1 and 0.5 mg/kg doses): some protection
- cause of deaths ([1]; as the dose was increased): entirely due to conduction abnormalities
- dose at which complete protection against VT was observed ([1]; guinea pig, in vivo): 2.5 mg/kg
- dose that completely protected against VF ([1]; guinea pig, in vivo): 2.5 mg/kg
- minimum protective dose against ouabain induced VT ([1]; guinea pig, in vivo): 0.1 mg/kg
- cause of deaths ([1]; lower doses): due to tachyarrhythmias
- protection against mortality ([1]; lower doses): reduced mortality
- deaths due to conduction block increased ([1]; no dose stated): increased
- pA2 Mean [2]: 6.48

SMILES: CC(C)NCC(O)c1ccc(NS(C)(=O)=O)cc1 (centres unmarked) [2.5:1 RATIO, N-[4-[1-hydroxy-2-[(1-methylethyl)amino]ethyl]phenyl] methane sulfonamide]
- mortality compared to 2:1 ratio at the same dose ([1]; 0.5 mg/kg): lower
- protection against VF ([1]; 0.5 mg/kg): some protection, it was not complete
- actual incidence of mortality (value in parenthesis) ([1]; 0.5 mg/kg): (2)
- protection against ouabain induced VT ([1]; 0.5 mg/kg, listed as 2.5:1 ratio (d:l)): protection was not complete
- % INCIDENCE OF MORTALITY ([1]; 0.5 mg/kg): 33.3%
- deaths due to conduction block (60 min), actual incidence (value in parenthesis) ([1]; 0.5 mg/kg): (2)
- deaths due to tachyarrhythmia (60 min), actual incidence (value in parenthesis) ([1]; 0.5 mg/kg): (0)
- actual incidence of VF (value in parenthesis) ([1]; 0.5 mg/kg): (2)
- actual incidence of VT (value in parenthesis) ([1]; 0.5 mg/kg): (2)*
- % INCIDENCE OF VF ([1]; 0.5 mg/kg): 33.3%
- % INCIDENCE OF VT ([1]; 0.5 mg/kg): 33.3%
- DEATHS DUE TO CONDUCTION BLOCK (60 MIN) Percentage ([1]; 0.5 mg/kg): 100.0%
- DEATHS DUE TO TACHYARRHYTHMIA (60 MIN) Percentage ([1]; 0.5 mg/kg): 00.0%
- protection against mortality ([1]; 2.5 mg/kg): protected significantly
- protection from deaths due to tachyarrhythmias ([1]; 2.5 mg/kg): completely protected
- protection against arrhythmias (VT and VF) ([1]; 2.5 mg/kg, listed as 2.5:1): completely protects; also recorded: complete protection
- % INCIDENCE OF MORTALITY ([1]; 2.5 mg/kg): 16.6%
- % INCIDENCE OF MORTALITY ([1]; 2.5 mg/kg, listed as 2.5:1): 16.6%
- deaths due to conduction block (60 min), actual incidence (value in parenthesis) ([1]; 2.5 mg/kg): (1)
- deaths due to tachyarrhythmia (60 min), actual incidence (value in parenthesis) ([1]; 2.5 mg/kg): (0)
- actual incidence of VF (value in parenthesis) ([1]; 2.5 mg/kg): (0)*
- actual incidence of VT (value in parenthesis) ([1]; 2.5 mg/kg): (0)*
- % INCIDENCE OF VF ([1]; 2.5 mg/kg): 0.0%
- % INCIDENCE OF VT ([1]; 2.5 mg/kg): 0.0%
- DEATHS DUE TO CONDUCTION BLOCK (60 MIN) Percentage ([1]; 2.5 mg/kg): 100.0%
- DEATHS DUE TO TACHYARRHYTHMIA (60 MIN) Percentage ([1]; 2.5 mg/kg): 00.0%
- dose at which complete protection against VT was observed [1, 3]: 2.5 mg/kg
- dose that completely protected against VF [1, 3]: 2.5 mg/kg
- cause of deaths ([1]; no dose stated): due to conduction abnormalities
- mortality compared with control groups ([1]; no dose stated): less than that of control groups

SMILES: CC(C)NCC(O)c1ccc(NS(C)(=O)=O)cc1 (centres unmarked) [5:1, N-[4-[1-hydroxy-2-[(1-methylethyl)amino]ethyl]phenyl] methane sulfonamide]
- pA2 Mean [2]: 5.85
